The values that follow come from patent US9758491B2, “Molecules having pesticidal utility, and intermediates, compositions, and processes, related thereto” (priority 2015, dated 2017).

Holding throughout (type): in vivo
Data set [1] deals with Beet Armyworm (Spodoptera exigua, LAPHEG). In words: Bioassay on Beet Armyworm (BAW), 128-well diet tray assay. The conditions noted are these: 168 h, 50 μg/cm^2 on artificial diet, second instar larvae, 25° C., five to seven days, average of eight wells, read-out: BAW rating, % Control (or Mortality). Here is the method: (§1) Certain molecules disclosed in this document were tested against BAW and CL using procedures described in the following examples. In the reporting of the results, the “BAW & CL Rating Table” was used (See Table Section).
Bioassays on BAW were conducted using a 128-well diet tray assay. One to five second instar BAW larvae were placed in each well (3 mL) of the diet tray that had been previously filled with 1 mL of artificial diet to which 50 μg/cm^2 of the test molecule (dissolved in 50 μL of 90:10 acetone-water mixture) had been applied (to each of eight wells) and then allowed to dry. Trays were covered with a clear self-adhesive cover, vented to allow gas exchange, and held at 25° C., 14:10 light-dark for five to seven days. Percent mortality was recorded for the larvae in each well; activity in the eight wells was then averaged. The results are indicated in the table entitled “Table ABC: Biological Results” (See Table Section).

In data set [2] the test system is Cabbage Looper (Trichoplusia ni, TRIPNI). Nature of the data set: Bioassay on Cabbage Looper (CL), 128-well diet tray assay. The conditions noted are these: 168 h, 50 μg/cm^2 on artificial diet, second instar larvae, 25° C., five to seven days, average of eight wells, read-out: CL rating, % Control (or Mortality). Here is the method: as §1
Bioassays on CL were conducted using a 128-well diet tray assay. One to five second instar CL larvae were placed in each well (3 mL) of the diet tray that had been previously filled with 1 mL of artificial diet to which 50 μg/cm^2 of the test molecule (dissolved in 50 μL of 90:10 acetone-water mixture) had been applied (to each of eight wells) and then allowed to dry. Trays were covered with a clear self-adhesive cover, vented to allow gas exchange, and held at 25° C., 14:10 light-dark for five to seven days. Percent mortality was recorded for the larvae in each well; activity in the eight wells was then averaged. The results are indicated in the table entitled “Table ABC: Biological Results” (See Table Section).

Data set [3] concerns Yellow Fever Mosquito (Aedes aegypti, AEDSAE). Nature of the data set: Bioassay on Yellow Fever Mosquito (YFM) larvae, 96-well plate. The conditions noted are these: 4000 ppm DMSO master solution diluted, about 1 day-old larvae, room temperature, scored after 3 days. Here is the method: Certain molecules disclosed in this document were tested against YFM using procedures described in the following paragraph. In the reporting of the results, the “YFM Rating Table” was used (See Table Section).
Master plates containing 400 μg of a molecule dissolved in 100 μL of dimethyl sulfoxide (DMSO) (equivalent to a 4000 ppm solution) are used. A master plate of assembled molecules contains 15 μL per well. To this plate, 135 μL of a 90:10 water/acetone mixture is added to each well. A robot (Biomek® NXP Laboratory Automation Workstation) is programmed to dispense 15 μL aspirations from the master plate into an empty 96-well shallow plate (“daughter” plate). There are 6 reps (“daughter” plates) created per master. The created “daughter” plates are then immediately infested with YFM larvae.
The day before plates are to be treated, mosquito eggs are placed in Millipore water containing liver powder to begin hatching (4 g into 400 mL). After the “daughter” plates are created using the robot, they are infested with 220 μL of the liver powder/larval mosquito mixture (about 1 day-old larvae). After plates are infested with mosquito larvae, a non-evaporative lid is used to cover the plate to reduce drying. Plates are held at room temperature for 3 days prior to grading. After 3 days, each well is observed and scored based on mortality. The results are indicated in the table entitled “Table ABC: Biological Results” (See Table Section).

With `O=C(/N=C1\NCCN1c1ccccc1OC(F)(F)F)Nc1ccc(-c2ncn(-c3ccc(OC(F)(F)F)cc3)n2)cc1` [F19, (E)-1-(4-(1-(4-(Trifluoromethoxy)phenyl)-1H-1,2,4-triazol-3-yl)phenyl)-3-(1-(2-(trifluoromethoxy)phenyl)imidazolidin-2-ylidene)urea], the results for the mortality at 50 µg/cm2 in data set [1] and in data set [2] were 0 to 50% and 50 to 100%, respectively. In addition, the “YFM rating, % Control (or Mortality)” value in data set [3] is “D (No activity noticed in this bioassay)”.

As to `COc1cccc(N2CCN/C2=N\C(=O)Nc2ccc(-c3ncn(-c4ccc(OC(F)(F)F)cc4)n3)cc2)c1` [F20, (E)-1-(1-(3-Methoxyphenyl)imidazolidin-2-ylidene)-3-(4-(1-(4-(trifluoromethoxy)phenyl)-1H-1,2,4-triazol-3-yl)phenyl)urea], the mortality at 50 µg/cm2 in data set [1] and in data set [2] was 50 to 100% in each case. The “YFM rating, % Control (or Mortality)” value in data set [3] is “A (80-100)”.

Turning to `COc1ccc(N2CCN/C2=N\C(=O)Nc2ccc(-c3ncn(-c4ccc(OC(F)(F)F)cc4)n3)cc2)cc1` [F21, (E)-1-(1-(4-Methoxyphenyl)imidazolidin-2-ylidene)-3-(4-(1-(4-(trifluoromethoxy)phenyl)-1H-1,2,4-triazol-3-yl)phenyl)urea], the mortality at 50 µg/cm2 in data set [1] and in data set [2] was 50 to 100% throughout. For the same compound, the “YFM rating, % Control (or Mortality)” value in data set [3] is “A (80-100)”.

For orientation: mortality means the share of the test organisms that died.
